The results in this text go back to patent publication US20250289789A1, “REVERSIBLE LYSINE COVALENT MODIFIERS OF CDK2 AND USES THEREOF” (Terremoto Biosciences, Inc., priority 2023, published 2025).

Format in all cases: cell-based
Assay [1] addresses T1, CDK1-NanoLuc fusion with CCNB1 in 293T or 293 cells (Homo sapiens, UniProt P06493).
T1 construct: host or cells: 293T (ATCC CRL-3216) or 293 (ATCC CRL-1573)
In words: NanoBRET Target Engagement (TE) Intracellular Kinase Assay, CDK1/CCNB1. Particulars: 2-hour incubation. A digest of the protocol:
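IC50 derived by four-parameter logistic fit of DMSO-normalized acceptor/donor (610/450 nm) BRET ratio. Compound and Tracer K-10 were applied together for 2 h at 37° C to 293 or 293T cells transfected 24 h earlier with CDK1-NanoLuc fusion and cyclin B1.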
A general note: In BRET a luciferase serves as donor, and the signal depends on an acceptor being close.

In assay [2] the test system is Phospho-Rb Ser807/811 in OVCAR3 cells. Put plainly: OVCAR3 Phospho-Rb Ser807/811 HTRF assay. Particulars: Homo sapiens, OVCAR3 cells, Phospho-Rb Ser807/811 HTRF, 1 hour incubation, read-out: pRb-OVCAR3 IC50. On the procedure:
Cells were trypsinized and resuspended in 1 mM hydroxyurea (Sigma; H8627), 90% RPMI and 10% fetal bovine serum. […] Dose response curve normalized to DMSO control was plotted using four-parameter logistic model for IC50 calculation.
A general note: Time-resolved FRET reads energy transfer from a long-lived donor to a nearby acceptor.

In assay [3] the target is T2, CDK2-NanoLuc fusion with CCNE1 in 293T or 293 cells (Homo sapiens, UniProt P24941).
T2 construct: host or cells: 293T (ATCC CRL-3216) or 293 (ATCC CRL-1573)
Put plainly: NanoBRET Target Engagement (TE) Intracellular Kinase Assay, CDK2/CCNE1. Particulars: 2-hour incubation.

In assay [4] the target is T3, CDK4-NanoLuc fusion with CCND1 in 293T or 293 cells (Homo sapiens, UniProt P11802).
T3 construct: host or cells: 293T (ATCC CRL-3216) or 293 (ATCC CRL-1573)
Put plainly: NanoBRET Target Engagement (TE) Intracellular Kinase Assay, CDK4/CCND1. Particulars: 2-hour incubation.

[5] abbreviates: NanoBRET TE intracellular kinase assay, read-out: NanoBRET-CDK1/B1 IC50.
[6] abbreviates: NanoBRET TE intracellular kinase assay, read-out: NanoBRET-CDK2/E1 IC50.
Where [7] appears, read: NanoBRET TE intracellular kinase assay, read-out: NanoBRET-CDK4/D1 IC50.

pIC50: −log10 of the molar value. Read-outs that look alike come from different tables or passages of the source. A value given as a limit tells only on which side of the number the result lay.

T3 sequence (P11802 whole entry, the tested form may be a part): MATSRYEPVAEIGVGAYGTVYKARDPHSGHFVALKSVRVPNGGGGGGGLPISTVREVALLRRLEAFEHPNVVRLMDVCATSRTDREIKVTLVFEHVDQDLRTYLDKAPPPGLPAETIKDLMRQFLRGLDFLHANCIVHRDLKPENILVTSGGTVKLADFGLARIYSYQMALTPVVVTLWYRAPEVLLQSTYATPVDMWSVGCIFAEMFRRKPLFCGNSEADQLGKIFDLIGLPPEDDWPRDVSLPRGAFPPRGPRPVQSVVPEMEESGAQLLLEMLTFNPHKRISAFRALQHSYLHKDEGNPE
T3 sequence (P24385 whole entry partner, the tested form may be a part): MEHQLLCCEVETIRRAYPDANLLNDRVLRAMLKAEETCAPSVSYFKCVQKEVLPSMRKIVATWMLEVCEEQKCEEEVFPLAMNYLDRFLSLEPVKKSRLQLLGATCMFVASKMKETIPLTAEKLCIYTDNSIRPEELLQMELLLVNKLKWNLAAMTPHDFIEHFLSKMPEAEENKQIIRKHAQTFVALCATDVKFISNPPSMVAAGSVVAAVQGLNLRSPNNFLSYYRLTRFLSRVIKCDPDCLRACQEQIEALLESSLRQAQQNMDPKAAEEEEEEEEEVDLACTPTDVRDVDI
T1 sequence (P06493 whole entry, the tested form may be a part): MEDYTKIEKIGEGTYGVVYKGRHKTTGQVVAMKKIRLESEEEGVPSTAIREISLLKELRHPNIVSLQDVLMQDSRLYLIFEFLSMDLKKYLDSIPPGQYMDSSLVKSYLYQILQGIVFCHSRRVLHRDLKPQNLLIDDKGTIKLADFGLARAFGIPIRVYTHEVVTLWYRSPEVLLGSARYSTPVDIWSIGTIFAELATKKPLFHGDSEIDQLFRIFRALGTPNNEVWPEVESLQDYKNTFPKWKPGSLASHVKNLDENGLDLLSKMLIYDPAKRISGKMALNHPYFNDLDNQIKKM
T1 sequence (P14635 whole entry partner, the tested form may be a part): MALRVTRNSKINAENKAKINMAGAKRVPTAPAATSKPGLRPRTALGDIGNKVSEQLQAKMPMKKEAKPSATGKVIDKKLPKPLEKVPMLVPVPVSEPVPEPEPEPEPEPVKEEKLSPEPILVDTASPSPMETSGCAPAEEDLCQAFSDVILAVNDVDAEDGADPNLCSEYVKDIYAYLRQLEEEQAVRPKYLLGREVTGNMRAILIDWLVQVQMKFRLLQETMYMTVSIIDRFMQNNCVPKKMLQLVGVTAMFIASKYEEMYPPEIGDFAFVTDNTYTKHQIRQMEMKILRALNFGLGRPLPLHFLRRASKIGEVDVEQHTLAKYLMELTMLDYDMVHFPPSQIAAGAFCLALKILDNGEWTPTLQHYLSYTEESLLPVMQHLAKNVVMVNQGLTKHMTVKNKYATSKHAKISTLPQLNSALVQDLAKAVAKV

Consider `COc1cccc(OCC(=O)Nc2cc([C@H]3CC[C@@H](OC(=O)NC4(C)CCC4)C3)[nH]n2)c1C=O` [Compound 105, (1R,3S)-3-{5-[2-(2-formyl-3-methoxyphenoxy)acetamido]-2H-pyrazol-3-yl}cyclopentyl N-(1-methylcyclobutyl)carbamate; trifluoroacetic acid], for which the pIC50 in assay [1] (setting [5]) is 8.66; in assay [2] (OVCAR-3, 1 h) it was 7.18; in assay [3] (setting [6]) it was 9.00; in assay [4] (setting [7]), 5.63.

Consider `COc1cccc(-c2cc(C(=O)Nc3cc([C@H]4CC[C@@H](OC(=O)NC(C)C)C4)[nH]n3)n(C)n2)c1C=O` [Compound 106, (1R,3S)-3-{5-[5-(2-formyl-3-methoxyphenyl)-2-methylpyrazole-3-amido]-2H-pyrazol-3-yl}cyclopentyl N-isopropylcarbamate; trifluoroacetic acid], for which the pIC50 in assay [1] (setting [5]) is 7.81; in assay [2] (OVCAR-3, 1 h), 6.51; in assay [3] (setting [6]), 8.37; in assay [4] (setting [7]), 5.48.

`CC(C)NC(=O)O[C@@H]1CC[C@H](c2cc(NC(=O)[C@H]3C[C@H](c4cccc(O)c4C=O)C3)n[nH]2)C1` [Compound 107, (1R,3S)-3-(3-((1r,3S)-3-(2-formyl-3-hydroxyphenyl)cyclobutane-1-carboxamido)-1H-pyrazol-5-yl)cyclopentyl isopropylcarbamate]: the pIC50 in assay [1] (setting [5]) is 7.92; in assay [2] (OVCAR-3, 1 h), 7.22; in assay [3] (setting [6]), 8.36; in assay [4] (setting [7]) it was 6.65.

Regarding `COc1cc(OC)c(C=O)c(OCC(=O)Nc2cc([C@H]3C[C@@H](OC(=O)N4C5COCC4C5)C3)[nH]n2)c1` [Compound 108, (1s,3s)-3-(3-(2-(2-formyl-3,5-dimethoxyphenoxy)acetamido)-1H-pyrazol-5-yl)cyclobutyl 3-oxa-6-azabicyclo[3.1.1]heptane-6-carboxylate], the pIC50 in assay [1] (setting [5]) is 7.82; in assay [2] (OVCAR-3, 1 h) it was 7.35; in assay [3] (setting [6]), 8.44; in assay [4] (setting [7]), less than 5.00.

With `COc1cc(OC)c(C=O)c(OCC(=O)Nc2cc([C@H]3C[C@@H](OC(=O)N4CCC4(C)C)C3)[nH]n2)c1` [Compound 109, (1s,3s)-3-(3-(2-(2-formyl-3,5-dimethoxyphenoxy)acetamido)-1H-pyrazol-5-yl)cyclobutyl 2,2-dimethylazetidine-1-carboxylate], the pIC50 in assay [1] (setting [5]) was 8.38; in assay [2] (OVCAR-3, 1 h) it was 7.75; in assay [3] (setting [6]), 8.73; in assay [4] (setting [7]) it was 5.36.

Take `CCCNC(=O)O[C@H]1C[C@@H](c2cc(NC(=O)COc3cc(OC)cc(OC)c3C=O)n[nH]2)C1` [Compound 110, (1s,3s)-3-(3-(2-(2-formyl-3,5-dimethoxyphenoxy)acetamido)-1H-pyrazol-5-yl)cyclobutyl propylcarbamate]: the pIC50 is 8.12 in assay [1] (setting [5]); 7.56 in assay [2] (OVCAR-3, 1 h); 8.54 in assay [3] (setting [6]); 5.27 in assay [4] (setting [7]).

Turning to `COc1cc(O)c(C=O)c(OCC(=O)Nc2cc([C@H]3C[C@@H](OC(=O)N4C5COCC4C5)C3)[nH]n2)c1` [Compound 111, (1s,3s)-3-(3-(2-(2-formyl-3-hydroxy-5-methoxyphenoxy)acetamido)-1H-pyrazol-5-yl)cyclobutyl 3-oxa-6-azabicyclo[3.1.1]heptane-6-carboxylate], the pIC50 was 7.68 in assay [1] (setting [5]); 7.10 in assay [2] (OVCAR-3, 1 h); 8.26 in assay [3] (setting [6]); less than 5.00 in assay [4] (setting [7]).

Take `COc1cc(O)c(C=O)c(OCC(=O)Nc2cc([C@H]3C[C@@H](OC(=O)N4CCCC4)C3)[nH]n2)c1` [Compound 112, (1s,3s)-3-(3-(2-(2-formyl-3-hydroxy-5-methoxyphenoxy)acetamido)-1H-pyrazol-5-yl)cyclobutyl pyrrolidine-1-carboxylate]: the pIC50 in assay [1] (setting [5]) was 7.44; in assay [2] (OVCAR-3, 1 h), 6.83; in assay [3] (setting [6]), 8.33; in assay [4] (setting [7]), less than 5.00.

Regarding `COc1cc(O)c(C=O)c(OCC(=O)Nc2cc([C@H]3C[C@@H](OC(=O)NC(C)C)C3)[nH]n2)c1` [Compound 113, (1s,3s)-3-(3-(2-(2-formyl-3-hydroxy-5-methoxyphenoxy)acetamido)-1H-pyrazol-5-yl)cyclobutyl isopropylcarbamate], the pIC50 in assay [1] (setting [5]) is 7.94; in assay [2] (OVCAR-3, 1 h), 7.21; in assay [3] (setting [6]) it was 8.38; in assay [4] (setting [7]) it was less than 5.00.

`CC(C)NC(=O)O[C@H]1C[C@@H](c2cc(NC(=O)COc3cccc(O)c3C=O)n[nH]2)C1` [Compound 114, (1s,3s)-3-(3-(2-(2-formyl-3-hydroxyphenoxy)acetamido)-1H-pyrazol-5-yl)cyclobutyl isopropylcarbamate]: the pIC50 is 7.57 in assay [1] (setting [5]); 6.92 in assay [2] (OVCAR-3, 1 h); 8.35 in assay [3] (setting [6]); less than 5.00 in assay [4] (setting [7]).

Turning to `COc1cc(O)c(C=O)c(OCC(=O)Nc2cc([C@H]3CC[C@@H](OC(=O)NC(C)(C)C)C3)[nH]n2)c1` [Compound 128, (1R,3S)-3-(3-(2-(2-formyl-3-hydroxy-5-methoxyphenoxy)acetamido)-1H-pyrazol-5-yl)cyclopentyl tert-butylcarbamate], the pIC50 is 8.29 in assay [1] (setting [5]); 7.46 in assay [2] (OVCAR-3, 1 h); 8.62 in assay [3] (setting [6]); 6.02 in assay [4] (setting [7]).

For `COc1cc(O)c(C=O)c(OCC(=O)Nc2cc([C@H]3CC[C@@H](OC(=O)N[C@H]4C[C@H]4F)C3)[nH]n2)c1` [Compound 132], the pIC50 is 7.97 in assay [1] (setting [5]); 7.66 in assay [2] (OVCAR-3, 1 h); 8.47 in assay [3] (setting [6]); 5.53 in assay [4] (setting [7]).

As to `COc1cc(O)c(C=O)c(OCC(=O)Nc2cc([C@H]3CC[C@@H](OC(=O)N(C)N(C)C)C3)[nH]n2)c1` [Compound 172, (1R,3S)-3-(3-(2-(2-formyl-3-hydroxy-5-methoxyphenoxy)acetamido)-1H-pyrazol-5-yl)cyclopentyl 1,2,2-trimethylhydrazine-1-carboxylate], the pIC50 was 7.60 in assay [1] (setting [5]); 6.88 in assay [2] (OVCAR-3, 1 h); 8.40 in assay [3] (setting [6]); less than 5.00 in assay [4] (setting [7]).

Consider `Cc1cc(O)c(C=O)c(OCC(=O)Nc2cc([C@H]3CC[C@@H](OC(=O)N4C5COCC4C5)C3)[nH]n2)c1` [Compound 199], for which the pIC50 in assay [1] (setting [5]) was 7.70; in assay [2] (OVCAR-3, 1 h), 7.23; in assay [3] (setting [6]) it was 8.42; in assay [4] (setting [7]), 5.19.

Regarding `COC[C@H](C)NC(=O)O[C@@H]1CC[C@H](c2cc(NC(=O)COc3cc(OC)cc(O)c3C=O)n[nH]2)C1` [Compound 200], the pIC50 was 8.05 in assay [1] (setting [5]); 7.56 in assay [2] (OVCAR-3, 1 h); 8.29 in assay [3] (setting [6]); 5.08 in assay [4] (setting [7]).

As for `COc1cc(O)c(C=O)c(OCC(=O)Nc2cc([C@H]3CC[C@@H](OC(=O)N4[C@H](C)COC[C@@H]4C)C3)[nH]n2)c1` [Compound 201], the pIC50 is 7.89 in assay [1] (setting [5]); 7.55 in assay [2] (OVCAR-3, 1 h); 8.39 in assay [3] (setting [6]); 5.33 in assay [4] (setting [7]).

As for `COc1cc(O)c(C=O)c(OCC(=O)Nc2cc([C@H]3CC[C@@H](OC(=O)NC[C@@H](C)OC)C3)[nH]n2)c1` [Compound 202], the pIC50 in assay [1] (setting [5]) was 7.38; in assay [2] (OVCAR-3, 1 h), 7.15; in assay [3] (setting [6]), 8.25; in assay [4] (setting [7]), less than 5.00.

On to `COc1cc(O)c(C=O)c(OCC(=O)Nc2cc([C@H]3CC[C@@H](OC(=O)N4C[C@H]5C[C@@H]4CO5)C3)[nH]n2)c1` [Compound 203], for which the pIC50 in assay [1] (setting [5]) is 7.73; in assay [2] (OVCAR-3, 1 h) it was 7.22; in assay [3] (setting [6]), 8.13; in assay [4] (setting [7]) it was less than 5.00.

For `COc1cc(O)c(C=O)c(OCC(=O)Nc2cc([C@H]3CC[C@@H](OC(=O)N4C[C@@H]5C[C@H]4CO5)C3)[nH]n2)c1` [Compound 204], the pIC50 in assay [1] (setting [5]) is 7.91; in assay [2] (OVCAR-3, 1 h) it was 7.46; in assay [3] (setting [6]) it was 8.34; in assay [4] (setting [7]) it was less than 5.02.

For `COc1cc(O)c(C=O)c(OCC(=O)Nc2cc([C@H]3CC[C@@H](OC(=O)N4CCOCC45CC5)C3)[nH]n2)c1` [Compound 205], the pIC50 in assay [1] (setting [5]) is 8.34; in assay [2] (OVCAR-3, 1 h) it was 7.58; in assay [3] (setting [6]) it was 8.46; in assay [4] (setting [7]), 5.69.

On to `COc1cc(O)c(C=O)c(OCC(=O)Nc2cc([C@H]3CC[C@@H](OC(=O)N4CCOC[C@H]4C)C3)[nH]n2)c1` [Compound 206], for which the pIC50 in assay [1] (setting [5]) is 8.25; in assay [2] (OVCAR-3, 1 h), 7.56; in assay [3] (setting [6]), 8.61; in assay [4] (setting [7]), less than 5.00.

Consider `COc1cc(O)c(C=O)c(OCC(=O)Nc2cc([C@H]3CC[C@@H](OC(=O)N4C5CCC4COC5)C3)[nH]n2)c1` [Compound 207, (1R,3S)-3-{5-[2-(2-formyl-3-hydroxy-5-methoxyphenoxy)acetamido]-2H-pyrazol-3-yl}cyclopentyl 3-oxa-8-azabicyclo[3.2.1]octane-8-carboxylate], for which the pIC50 in assay [1] (NanoBRET-CDK1/B1 IC50, NanoBRET TE intracellular kinase assay) is 8.18; in assay [2] (OVCAR-3) it was 7.59; in assay [3] (NanoBRET-CDK2/E1 IC50, NanoBRET TE intracellular kinase assay), 8.65; in assay [4] (NanoBRET-CDK4/D1 IC50, NanoBRET TE intracellular kinase assay), 5.38.
